Assay results published in patent US20080045582A1, “ENA-78 Gene Polymorphisms and Protein Concentrations as Diagnostic and Prognostic Tools” (priority 2006, published 2008).

Key:
ENA-78 [1] = assay: ENA-78 production by non-stimulated human umbilical vein endothelial cells, multiplex protein measurement; format: cell-based; details: 24 hours
Method: (§1) Human umbilical vein endothelial cells were obtained (Clonetics Cell Systems; Cambrex Bio Science Walkersville, Inc., Walkersville, Md.). Approximately 5×10^5 viable cells were seeded in endothelial cell growth-supplemented basal medium (EGM-2-endothelial cell medium-2; Cambrex Bio Science Walkersville, Inc.) and maintained at 37° C. under a 5% carbon dioxide atmosphere per manufacturer's protocol. The culture medium was changed 24 hours after seeding and every 48 hours thereafter until confluence. Cells were then treated with trypsin, seeded in a 48-well culture dish, and incubated under the conditions previously described. Cells used in this Example were from the third passage.
(§2) After cells reached 70-80% confluence in the culture dish, they were allowed to become quiescent in unsupplemented, serum-free medium for 24 hours before treatment and then placed in medium containing 2% fetal bovine serum. Atorvastatin (LKT Laboratories Inc., St. Paul, Minn.) was dissolved in dimethylsulfoxide (Sigma-Aldrich, St. Louis, Mo.). Cells were treated for 24 hours with atorvastatin 1-50 μM alone or with atorvastatin plus mevalonate 250 μM (Sigma-Aldrich). Controls were cells cultured without atorvastatin or atorvastatinmevalonate. […] All experiments were performed in duplicate.
(§3) After treatment, culture-conditioned media were collected, divided into aliquots, and stored at −80° C. for no longer than 7 days until multiplex measurement of chemokines, cytokines, and angiogenic factors was performed.
(§4) The culture-conditioned media protein content of epithelial neutrophil-activating peptide-78 (ENA-78), interleukin-8, (IL-8), monocyte chemotactic protein-1 (MCP-1), interleukin-6 (IL-6), interleukin-10 (IL-10), fibroblast growth factor (FGF), and granulocyte colony-stimulating factor (G-CSF) were measured by means of flow-based immunofluorescence multiplex detection (Fluorokine MAP Human Cytokine Panel; R&D Systems Inc., Minneapolis, Minn.) with the Luminex 100 IS platform (Luminex Corp., Austin, Tex.). Concentrations for each sample were normalized against milligrams of total protein by using a standard bicinchoninic acid protein assay (Pierce Biotechnology, Inc., Rockford, Ill.). Samples were assayed in duplicate.
(§5) Standard curves of best fit for each analyte were generated by plotting the median fluorescence intensities of the analyte standards against their known concentrations by using Beadview multiplex data analysis software version 1 (Upstate, Charlottesville, Va.).
(§6) Differences in biomolecular concentrations were compared by treatment group by applying one-way analysis of variance and a post-hoc Tukey's test as appropriate. The Jonckheere Terpstra test was performed to assess the trend for differences in biomolecular concentrations across concentrations of atorvastatin. […]

IL-8 = IL-8 production by non-stimulated human umbilical vein endothelial cells, multiplex protein measurement; format: cell-based
Method: as §1, §2, §3, §4, §5
Differences in biomolecular concentrations were compared by treatment group by applying one-way analysis of variance and a post-hoc Tukey's test as appropriate. The Jonckheere Terpstra test was performed to assess the trend for differences in biomolecular concentrations across concentrations of atorvastatin. A p value below 0.05 was considered to indicate a statistically significant difference. Statistical analyses were performed with SPSS software, version 11.5 (SPSS Inc., Chicago, Ill.).

MCP-1 = MCP-1 production by non-stimulated human umbilical vein endothelial cells, multiplex protein measurement; format: cell-based
Method: as §1, §2, §3, §4, §5, §6

IL-6 = IL-6 production by non-stimulated human umbilical vein endothelial cells, multiplex protein measurement; format: cell-based; details: increasing concentration of atorvastatin (1-50 μM), 24 hours, FIG. 11A
Method: as §1, with “passage. […]” for “passage.”
as §4, with “Concentrations for each sample were normalized against milligrams of total protein by using a standard bicinchoninic acid protein assay (Pierce Biotechnology, Inc., Rockford, Ill.). Samples were assayed in duplicate.” left out

IL-10 = IL-10 production by non-stimulated human umbilical vein endothelial cells, multiplex protein measurement; format: cell-based; details: atorvastatin 1-50 μM, 24 hours, FIG. 11B
Method: as §1, with “passage. […]” for “passage.”
as §4, with “Concentrations for each sample were normalized against milligrams of total protein by using a standard bicinchoninic acid protein assay (Pierce Biotechnology, Inc., Rockford, Ill.). Samples were assayed in duplicate.” left out

FGF = FGF production by non-stimulated human umbilical vein endothelial cells, multiplex protein measurement; format: cell-based; details: atorvastatin 1-50 μM, 24 hours, FIG. 12
Method: as §1, with “passage. […]” for “passage.”
as §4, with “Concentrations for each sample were normalized against milligrams of total protein by using a standard bicinchoninic acid protein assay (Pierce Biotechnology, Inc., Rockford, Ill.). Samples were assayed in duplicate.” left out

G-CSF = G-CSF production by non-stimulated human umbilical vein endothelial cells, multiplex protein measurement; format: cell-based; details: atorvastatin 1-50 μM, 24 hours, FIG. 12
Method: as §1, with “passage. […]” for “passage.”
as §4, with “Concentrations for each sample were normalized against milligrams of total protein by using a standard bicinchoninic acid protein assay (Pierce Biotechnology, Inc., Rockford, Ill.). Samples were assayed in duplicate.” left out

HUVECs = assay: HUVEC viability, trypan blue cell staining; format: cell-based, human; details: 24 hours of treatment, any dose of AT from 1 uM to 50 uM, FIG. 13
Method: Human umbilical vein endothelial cells (HUVECs) (Clonetics Cell Systems; Cambrex Bio Science Walkersville, Inc., Walkersville, USA) were cultured as previously described. Briefly, HUVECs between passes three and four were seeded at a density of 2.5×10^4 cells per cm^2 and cultured to 80% confluence with endothelial cell growth-supplemented medium (EGM-2-endothelial cell medium-2; Cambrex Bio Science Walkersville, Inc.). Once confluent, media was changed to serum free endothelial basal media (EBM-2-endothelial cell medium-2; Cambrex Bio Science Walkersville, Inc.) for 24 hours prior to treatment, in which EBM-2 media supplemented to a 2% FBS concentration was used.
Treatments consisted of atorvastatin calcium (AT; LKT Laboratories Inc., St. Paul, USA) 1-50 μM dissolved in dimethyl sulfoxide (DMSO), IL-1beta, mevalonate, farnesyl pyrophosphate (FPP), and geranylgeranyl pyrophosphate (GGPP) were purchased from Sigma-Aldrich (St. Louis, Mo.), with concentrations of 2 ng/ml, 250 μM, 5 μM, and 5 μM used respectively. All were dissolved in molecular grade water. All final DMSO concentrations were less then 0.1%.
Cell viability was assessed by treating HUVECs with AT 1 μM, 5 μM, 10 μM, 25 μM, and 50 μM using trypan blue cell staining. […]

ENA-78 [2] = assay: IL-1beta-stimulated ENA-78 production from HUVECs, cytometric immunofluorescence; format: cell-based, human; details: for ENA-78 production reduced by, compared with IL-1beta-stimulated cells in the absence of AT: AT pre-treatment 2 h before IL-1beta
Method: Human umbilical vein endothelial cells (HUVECs) (Clonetics Cell Systems; Cambrex Bio Science Walkersville, Inc., Walkersville, USA) were cultured as previously described. Briefly, HUVECs between passes three and four were seeded at a density of 2.5×10^4 cells per cm^2 and cultured to 80% confluence with endothelial cell growth-supplemented medium (EGM-2-endothelial cell medium-2; Cambrex Bio Science Walkersville, Inc.). Once confluent, media was changed to serum free endothelial basal media (EBM-2-endothelial cell medium-2; Cambrex Bio Science Walkersville, Inc.) for 24 hours prior to treatment, in which EBM-2 media supplemented to a 2% FBS concentration was used. Treatments consisted of atorvastatin calcium (AT; LKT Laboratories Inc., St. […] All were dissolved in molecular grade water. All final DMSO concentrations were less then 0.1%. […] In experiments investigating the impact of AT on IL-1beta-stimulated ENA-78 production, HUVECs were pre-treated with AT followed by IL-1beta stimulation two hours later. […] In a separate set of experiments, cells were cultured with IL-1beta and AT in the presence or absence of mevalonate, FPP, and GGPP to determine whether AT inhibition of ENA-78 production was dependent on HMG-CoA reductase inhibition and subsequent downstream pathways. Cell culture supernates for all experiments were stored at -20° C. until analysis, which was performed within seven days. ENA-78 concentrations were measured and normalized to total protein content in cell culture supernates using cytometric immunofluorescence as previously described. Ribonucleic acid (RNA) was isolated using a commercial kit (RNeasy mini kit, Qiagen Inc., Valencia, USA). Complementary deoxyribonucleic acid (cDNA) conversion was performed by high capacity cDNA reverse transcription (Applied Biosystems, Foster City, USA) per protocol using roughly 2 μg of total RNA. RNA quality was assessed by absorbance (Nanodrop, Nanodrop Technologies, Wilmington, USA). Real-time reverse-transcription PCR (RT-PCR) was done using primer and probe sets for CXCL5 normalized to a housekeeping gene, glyceraldehyde-3-phosphate dehydrogenase (GAPDH; Taqman Gene Expression Assays, Applied Biosystems Inc.). […] PCR for both CXCL5 and GAPDH was performed at the same time using the following conditions: 95° C. for 2 minutes; 35 cycles of 95° C. for 30 seconds, 59° C. for 30 seconds, and 72° C. for 30 seconds; followed by 7 minutes of elongation at 72° C. Statistical differences in normalized protein concentrations and gene expression levels were determined by one way ANOVA and post-hoc Tukey analysis. […] An independent t-test was used to compare treatment differences at the same time points in the dose range analysis. […] Statistical analyses were performed with SPSS software, version 11.5 (SPSS Inc., Chicago, USA).

CXCL5 = CXCL5 gene expression in HUVECs, real-time RT-PCR normalized to GAPDH; format: cell-based, human
Method: Human umbilical vein endothelial cells (HUVECs) (Clonetics Cell Systems; Cambrex Bio Science Walkersville, Inc., Walkersville, USA) were cultured as previously described. Briefly, HUVECs between passes three and four were seeded at a density of 2.5×10^4 cells per cm^2 and cultured to 80% confluence with endothelial cell growth-supplemented medium (EGM-2-endothelial cell medium-2; Cambrex Bio Science Walkersville, Inc.). Once confluent, media was changed to serum free endothelial basal media (EBM-2-endothelial cell medium-2; Cambrex Bio Science Walkersville, Inc.) for 24 hours prior to treatment, in which EBM-2 media supplemented to a 2% FBS concentration was used. Treatments consisted of atorvastatin calcium (AT; LKT Laboratories Inc., St. […] All were dissolved in molecular grade water. All final DMSO concentrations were less then 0.1%. […] In experiments investigating the impact of AT on IL-1beta-stimulated ENA-78 production, HUVECs were pre-treated with AT followed by IL-1beta stimulation two hours later. […] In a separate set of experiments, cells were cultured with IL-1beta and AT in the presence or absence of mevalonate, FPP, and GGPP to determine whether AT inhibition of ENA-78 production was dependent on HMG-CoA reductase inhibition and subsequent downstream pathways. Cell culture supernates for all experiments were stored at -20° C. until analysis, which was performed within seven days. ENA-78 concentrations were measured and normalized to total protein content in cell culture supernates using cytometric immunofluorescence as previously described. Ribonucleic acid (RNA) was isolated using a commercial kit (RNeasy mini kit, Qiagen Inc., Valencia, USA). […] RNA quality was assessed by absorbance (Nanodrop, Nanodrop Technologies, Wilmington, USA). […] Statistical differences in normalized protein concentrations and gene expression levels were determined by one way ANOVA and post-hoc Tukey analysis. […]

Compound: CC(C)c1c(C(=O)Nc2ccccc2)c(-c2ccccc2)c(-c2ccc(F)cc2)n1CC[C@@H](O)C[C@@H](O)CC(=O)O [atorvastatin]
- reduction in ENA-78 production compared with untreated controls (ENA-78 [1]; escalating concentrations of atorvastatin (10 μM to 50 μM), FIG. 10A): 45-85%
- ENA-78 production vs untreated control (ENA-78 [1]; lower concentrations of atorvastatin): not significantly altered
- IL-8 concentrations lowered by (IL-8; 1st of the four atorvastatin groups (1-50 μM), 24 hours): 26%
- IL-8 concentrations lowered by (IL-8; 2nd of the four atorvastatin groups (1-50 μM), 24 hours): 72%
- IL-8 concentrations lowered by (IL-8; 3rd of the four atorvastatin groups (1-50 μM), 24 hours): 83%
- IL-8 concentrations lowered by (IL-8; 4th of the four atorvastatin groups (1-50 μM), 24 hours): 89%
- minimum effective concentration giving significant reduction in IL-8 compared with control (IL-8; 24 hours, FIG. 10B): 5 µM
- IL-8 production (IL-8; atorvastatin 5 μM, 24 hours (control 551±69)): 155±45 pg/mg protein
- MCP-1 concentrations vs control condition (MCP-1; concentrations of atorvastatin less than 50 μM): did not significantly differ
- reduction in MCP-1 (MCP-1; highest concentration of atorvastatin (50 μM), 24 hours): 83%
- MCP-1 production (MCP-1; highest concentration of atorvastatin (50 μM), 24 hours (control 4556±514)): 782±105 pg/mg protein
- graded reduction of IL-6 production (IL-6): 29-83%
- treatment effect on IL-10 (IL-10): no treatment effect
- concentrations of FGF (FGF): did not change
- concentrations of G-CSF (G-CSF): did not change
- HUVEC viability compared with control (HUVECs): no significant differences
- ENA-78 production reduced by, compared with IL-1beta-stimulated cells in the absence of AT (ENA-78 [2]; 1st of the five AT dose groups (1, 5, 10, 25, 50 μM)): 38%
- ENA-78 production reduced by, compared with IL-1beta-stimulated cells in the absence of AT (ENA-78 [2]; 2nd of the five AT dose groups (1, 5, 10, 25, 50 μM)): 70%
- ENA-78 production reduced by, compared with IL-1beta-stimulated cells in the absence of AT (ENA-78 [2]; 3rd of the five AT dose groups (1, 5, 10, 25, 50 μM)): 78%
- ENA-78 production reduced by, compared with IL-1beta-stimulated cells in the absence of AT (ENA-78 [2]; 4th of the five AT dose groups (1, 5, 10, 25, 50 μM)): 93%
- ENA-78 production reduced by, compared with IL-1beta-stimulated cells in the absence of AT (ENA-78 [2]; 5th of the five AT dose groups (1, 5, 10, 25, 50 μM)): 99%
- IL-1beta-stimulated ENA-78 production (ENA-78 [2]; AT at concentrations ≧25 uM): returned to baseline
- IL-1beta-stimulated ENA-78 production (ENA-78 [2]; IL-1beta and AT 10 uM, FIG. 16): 1054 ± 349 pg/mg
- time at which AT attenuation of ENA-78 production relative to IL-1beta was most pronounced (ENA-78 [2]; time course 0, 4, 12, 24, 48 hours, FIG. 15): 48 h
- constitutive expression of CXCL5 (CXCL5; AT alone, 24 hours, FIG. 17): significantly lowered
- CXCL5 expression compared to IL-1beta alone (CXCL5; pre-treated with 10 μM of AT followed by IL-1beta in two hours): no difference

Compound: farnesyl pyrophosphate [FPP]
- effect of co-treatment on the effect of AT on IL-1beta-stimulated ENA-78 production (ENA-78 [2]; IL-1beta and AT 10 uM, mevalonate 250 μM, FPP 5 μM, GGPP 5 μM, FIG. 16): partially reversed
